Experimental data from article PMC3062530, “A Novel Mechanism of Programmed Cell Death in Bacteria by Toxin–Antitoxin Systems Corrupts Peptidoglycan Synthesis” (PLoS Biology, 2011).

Columns and labels:
MurA [1] = target: T1, MurA (Escherichia coli, UniProt P0A749); experiment: coupled phosphate-release fluorescence assay (7-methylguanosine / purine nucleoside phosphorylase), global fit; format: biochemical; details: 1 mM phosphoenolpyruvate, pH 7.5, 50 mM NaCl; global fit with UNAG-3P inhibition
T1 construct: purified enzyme
T1 sequence (P0A749 whole entry): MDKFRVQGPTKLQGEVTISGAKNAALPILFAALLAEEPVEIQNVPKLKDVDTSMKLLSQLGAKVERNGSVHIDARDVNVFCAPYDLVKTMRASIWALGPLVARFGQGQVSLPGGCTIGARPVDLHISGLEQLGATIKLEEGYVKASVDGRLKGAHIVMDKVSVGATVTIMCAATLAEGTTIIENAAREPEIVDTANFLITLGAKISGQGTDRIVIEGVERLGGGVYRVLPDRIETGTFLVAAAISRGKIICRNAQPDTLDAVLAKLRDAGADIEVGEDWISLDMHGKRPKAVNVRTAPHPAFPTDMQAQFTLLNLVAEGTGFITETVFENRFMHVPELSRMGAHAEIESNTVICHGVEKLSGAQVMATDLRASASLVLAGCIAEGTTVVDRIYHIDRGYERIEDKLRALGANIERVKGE

MurA [2] = target: T1, MurA; experiment: as above; format: biochemical; details: competitive with UNAG; 1 mM phosphoenolpyruvate, pH 7.5, 50 mM NaCl

Structure (SMILES) | Km (MurA [1]) | Ki (MurA [2])
CC(=O)N[C@H]1[C@@H](OP(=O)(O)OP(=O)(O)OC[C@H]2O[C@@H](n3ccc(=O)[nH]c3=O)[C@H](O)[C@@H]2O)O[C@H](CO)[C@@H](O)[C@@H]1O [UNAG] | 15 µM | 
CC(=O)N[C@H]1[C@@H](OP(=O)(O)OP(=O)(O)OC[C@H]2O[C@@H](n3ccc(=O)[nH]c3=O)[C@H](O)[C@@H]2O)O[C@H](CO)[C@@H](O)[C@@H]1OP(=O)(O)O [UNAG-3P] |  | 7 µM
